First: CC(=O)c1ccc(OCCCCN2C(=O)c3ccccc3C2=O)cc1
Second: CCOC(=O)c1ccc(NC=Nc2ccc3[nH]cc(CCN4C(=O)c5ccccc5C4=O)c3c2)cc1
The melting point of the first is higher: 112 to 114 °C for the first, 110 °C for the second.

Compared with CC(C)(CNC(=O)Cc1ccccc1)NCC(O)c1cc(Cl)c(N)c(Cl)c1 (stereo not drawn), O=C(O)Cc1ccc(NC(=O)C(CCc2ccccc2)NS(=O)(=O)c2ccc(Cl)cc2)cc1 (racemic) is higher in melting point: 96 to 98 °C for the first, 163 to 167 °C for the second.

First: Fc1ccccc1N1CCN(Cc2cn3cc(Cl)ccc3n2)CC1
Second: c1ccc2cc(CN3CCN(c4nccs4)CC3)ccc2c1
The melting point of the first is higher: 107 to 108 °C for the first, 83 to 84 °C for the second.

First: C#CCn1cc(CO)cc1C(=O)OC
Second: COC(=O)c1ccc(F)cc1C#N
The melting point of the first is lower: 77 °C for the first, 92 to 93 °C for the second.

First: CC(O)Cc1ccc(-c2ccc3cc(C(=O)O)ccc3c2)cc1C12CC3CC(CC(C3)C1)C2 (stereo not drawn)
Second: CCOC(=O)c1cc(C)n(-c2cccc(C(=O)O)c2)c1-c1ccccc1
The melting point of the first is higher: 282 °C for the first, 161 to 163 °C for the second.

First: O=C(NN=Cc1ccncc1)OC(c1ccccc1)c1ccccc1
Second: O=C1N(c2ccccc2)c2ccccc2C1(Cc1ccncc1)Cc1ccc([N+](=O)[O-])cc1 (stereo not drawn)
The melting point of the first is lower: 159 to 160 °C for the first, 168 to 169 °C for the second.

Compared with CC(=O)OCCn1c(C)c(C(=O)Nc2ccc(OCC(C)(C)C)c(C#N)c2)c2cc(F)ccc21, CCOC(=O)c1oc2c(C(=O)NCCCN3CCN(c4cc(Cl)ccc4OC)CC3)cccc2c(=O)c1C is lower in melting point: 124 to 125 °C for the first, 107 to 115 °C for the second.

Compared with COc1ccc2c(Br)c(C)sc2c1, COc1cc(C)c2ccccc2n1 is higher in melting point: 80 to 81 °C for the first, 181 to 191 °C for the second.

Compared with CCCCCCCCCCCCCCCCOC(=O)c1cc(C(=O)OCCCCCCCCCCCCCCCC)cc(S(=O)(=O)Cl)c1, CCOC(=O)c1cc(CC)sc1Nc1ccc(Cl)cc1[N+](=O)[O-] is higher in melting point: 48 to 50 °C for the first, 75 to 76.5 °C for the second.

First: COCN1C(=O)N(c2ccc(C#N)c(OC)c2)C(=O)C1(C)c1ccc(O)cc1 (stereo not drawn)
Second: COc1ccc(N2C(=O)c3ccc(Cl)cc3C2CC(=O)O)cc1 (stereo not drawn)
The melting point of the first is lower: 141 °C for the first, 250 to 251 °C for the second.

First: COc1ccc2c(Nc3ccc4[nH]ccc4c3)c(C#N)cnc2c1
Second: CN1CCN(Cc2ccccc2-c2cc3c(Nc4ccc5[nH]ccc5c4)c(C#N)cnc3s2)CC1
The melting point of the first is higher: > 250 °C for the first, 226 to 228 °C for the second.

First: CCCCN1CCC(c2c[nH]c3ccc(NS(C)(=O)=O)cc23)CC1
Second: O=c1cc(-c2ccccc2)oc2ccc(OCCCCN3CCC(O)CC3)cc12
The melting point of the first is lower: 78 °C for the first, 124 to 125 °C for the second.

First: CC1(C)OC(C=Cc2ccsc2)=CC1=O
Second: COC(=O)C1CC(C#N)(c2cccs2)CCC1=O (stereo not drawn)
The melting point of the first is higher: 79 to 80 °C for the first, 76 to 78 °C for the second.

First: CC(=O)CCc1ccc(-c2ccccc2F)cc1
Second: O=C(CCc1ccc(NC2=NCCN2)cc1)c1ccc(F)cc1
The melting point of the first is lower: 30 °C for the first, 190 to 191 °C for the second.

First: COC(=O)[C@H]1Cc2c([nH]c3ccccc23)[C@@H](c2ccc3occc3c2)N1C(=O)[C@H](C)NC(=O)OCc1ccccc1
Second: COC(=O)[C@]12CN(Cc3ccccc3)C[C@@H]1C(c1ccc(OC)cc1)=CC[C@@]2(C)c1ccccc1 (racemic)
The melting point of the first is lower: 91 to 92 °C for the first, 132 °C for the second.

First: CSc1ccc(C2=C(Br)CCC2)cc1
Second: CC(C)(C)OC(=O)N1CCC(=Cc2ccc(F)cc2)CC1
The melting point of the first is lower: 52 to 54 °C for the first, 69 to 70 °C for the second.

First: CCO/C(=C(/Oc1ccc(-c2ccc(Cl)cc2)cc1)n1ccnc1)C(C)(C)C
Second: COc1cccc(CCOc2ccc(C(=O)N/C(=C\c3ccc(Cl)cc3)C(=O)NCCO)cc2)c1
The melting point of the first is higher: 112 to 113 °C for the first, 54 to 56 °C for the second.

First: COC(=O)C(C)(C)Cc1c(C(=O)C2CC2)c2cc(OCc3ccc4ccccc4n3)c(C(=O)C3CC3)cc2n1Cc1ccc(Cl)cc1
Second: CCCOCc1cc2c(-c3ccc(OCc4ccccc4)cc3)c(CC)c3cccc1n32
The melting point of the first is higher: 166 to 167 °C for the first, 78 to 80 °C for the second.

First: CC(C)(C)OC(=O)C1C(C#CC(=O)O)C1(C)C (stereo not drawn)
Second: CC(C)(C)OC(=O)CN1C(=O)C=C(CC(NC(=O)OC(C)(C)C)C(=O)OC(C)(C)C)C1=O (stereo not drawn)
The melting point of the first is higher: 144 °C for the first, 88.5 to 89.5 °C for the second.

First: COC(=O)CCCC#CCN1C(=O)c2ccccc2C1=O
Second: COC(=O)c1ccc(N2C(=O)CCC2(CO)CO)c(N)c1
The melting point of the first is lower: 62 to 63 °C for the first, 192 to 194 °C for the second.

First: C[C@H](N[C@@H](CCc1ccccc1)C(=O)O)C(=O)N1C(=O)N(C)C[C@H]1C(=O)O
Second: O=C(O)C1Cc2ccccc2N1C(=O)CCS (stereo not drawn)
The melting point of the first is higher: 240 °C for the first, 140 to 142 °C for the second.

Compared with N#Cc1cnc2ccsc2c1Oc1ccc(Cl)cc1Cl, COc1ccc(-c2csc(Nc3ncccc3C)n2)cc1OC is higher in melting point: 158 to 160 °C for the first, 264 to 266 °C for the second.

First: CNC(=O)c1ccc(Nc2nc(OCC3CCCCC3)c3nc[nH]c3n2)cc1
Second: CN(C(=O)CCCOc1ccc2[nH]c(=O)oc(=O)c2c1)C1CCCCC1
The melting point of the first is lower: 139 to 142 °C for the first, 222 to 224 °C for the second.

First: NS(=O)(=O)c1cc2c3c(ccc2cc1[N+](=O)[O-])N(C(=O)C(F)(F)F)CC3CCl (stereo not drawn)
Second: NS(=O)(=O)c1cc(C(=O)O)cc(OCc2ccsc2)c1-c1ccccc1
The melting point of the first is lower: 192 to 195 °C for the first, 222 to 223 °C for the second.

First: Cc1cc(-c2nc3cc4c(cc3[nH]2)C(C)(C)CC(=O)N4)[nH]n1
Second: O=C1Cc2cc(-c3ccccc3)ccc2N1
The melting point of the first is higher: 242 to 245 °C for the first, 214 to 215 °C for the second.

First: CC(=O)N[C@H]1CC[C@H](CCN2CCN(c3nc(C)cc4occc34)CC2)CC1
Second: CSc1cc(C)nc(SC)c1NC(=O)CN1CCN(CCSc2nc3ccccc3o2)CC1
The melting point of the first is higher: 208 °C for the first, 140 to 141 °C for the second.

Compared with Cc1cc(C)c(-c2cn(C)c3c(O)ncnc23)c(C)c1, Cc1cc(C)c(S(=O)(=O)Nc2onc(C)c2Br)c(C)c1 is lower in melting point: 230 to 232 °C for the first, 92 to 95 °C for the second.

First: CCNc1cccnc1N1CCN(C(=O)c2ccc(C(=O)O)cc2)CC1
Second: CC(C)C(=O)CC(=O)c1ccc(C(=O)c2ccccc2)cc1
The melting point of the first is higher: 208 to 209 °C for the first, 76.5 to 78 °C for the second.

First: COC(=O)c1nc(-c2ccc(Cl)c(OC)c2F)cc(N)c1C
Second: COc1cc(-c2nc(C)c(C(=O)NN)s2)cc(OC)c1OC
The melting point of the first is lower: 122 to 125 °C for the first, 180 to 181 °C for the second.

First: O=C(Cl)c1cccc(Oc2ccc(S(=O)(=O)c3ccc(Oc4cccc(C(=O)Cl)c4)cc3)cc2)c1
Second: COc1ccc(S(=O)(=O)Nc2ccccc2NC(=O)c2cccnc2C)cc1
The melting point of the first is lower: 113 to 116 °C for the first, 148 to 149 °C for the second.

First: CN(C)c1nc2c(c(=O)[nH]1)CC(S(=O)(=O)c1ccccc1)CC2 (stereo not drawn)
Second: Cc1ccc(S(=O)(=O)OCC2Cc3c(F)ccc(Br)c3O2)cc1 (stereo not drawn)
The melting point of the first is higher: 249 °C for the first, 100 to 103 °C for the second.

First: Cc1ccccc1-c1cc(C#N)c(SSc2[nH]c(-c3ccccc3C)cc2C#N)[nH]1
Second: O=C1C(=O)c2ccccc2C2=C1SCC1(CCN(C(=O)c3ccc(Cl)c(Cl)c3)CC1)O2
The melting point of the first is higher: 248 to 249 °C for the first, 221 °C for the second.

Compared with COc1cccc(C2=C(C#N)C(c3cccc4nonc34)c3c[nH]nc3N2)c1 (stereo not drawn), COc1cccc(COc2cccc3c2CN(C2CCC(=O)NC2=O)C3=O)c1 (stereo not drawn) is higher in melting point: 198 °C for the first, 225 to 227 °C for the second.

First: CC1(C)CCC(C)(C)c2cc(-c3cc(C=CC(=O)O)ccc3O)c(OCc3ccc(F)cc3)cc21
Second: COc1ccc(Cc2cnc(N)nc2N)cc1OCc1ccccc1
The melting point of the first is lower: 123 to 125 °C for the first, 210 to 212 °C for the second.

Compared with O=C(CCC(F)(F)F)Oc1cc(=O)n(-c2ccccc2)c2ncccc12, CP(C)(=O)CCCOC(=O)c1cccnc1Nc1cccc(C(F)(F)F)c1 is lower in melting point: 193 to 195 °C for the first, 165 °C for the second.

First: O=[N+]([O-])C=Cc1cccc2[nH]ccc12
Second: O=C(NC1CCN(CCc2ccc([N+](=O)[O-])cc2)CC1)c1ccccc1
The melting point of the first is lower: 152 to 154 °C for the first, 209 to 216 °C for the second.

First: Cc1c(SCCCCS)ccnc1CO
Second: COCN(C(=O)Cc1ccc(Cl)cc1)C(c1cncnc1C(F)(F)F)C(C)C (stereo not drawn)
The melting point of the first is lower: 58 to 63 °C for the first, 142 to 145 °C for the second.

Going from C=CC(=O)Nc1ccc2ccc(Cl)nc2n1 to CC(C)c1ccc(NC(=O)C(F)(F)F)cc1, the melting point falls from 200 °C to 98 °C.

Compared with COC(=O)c1c2snnc2nn1C, CCC(C)(CC)c1nnc(NC(=O)c2c(OC)cccc2OC)[nH]1 is higher in melting point: 115 to 121 °C for the first, 279 to 280 °C for the second.

Compared with O=c1cc(NCCN2CCN(c3ccccc3)CC2)cn[nH]1, O=C(CNc1ccc2cn[nH]c2c1)N1CCC(Cc2ccccc2)CC1 is higher in melting point: 147 to 149 °C for the first, 179 to 182 °C for the second.

First: CC1CCc2ccc(C#N)c3c(=O)c(C(=O)O)cn1c23 (stereo not drawn)
Second: COc1c(N2CC[C@@H](O)[C@H](C)C2)c(F)c(N)c2c(=O)c(C(=O)O)cn(C3CC3)c12 (relative stereo)
The melting point of the first is higher: > 300 °C for the first, 240 to 244 °C for the second.

Compared with CC(=O)C1(OC=O)CCC2C3CCC4=CC(=O)C=CC4(C)C3CCC21C (stereo not drawn), CC(=O)c1cccc(N2CCN(CCCCOc3ccc4c(n3)NC(=O)CC4)CC2)c1Cl is lower in melting point: 201 to 205 °C for the first, 138 to 139 °C for the second.

First: CCCc1c(C(C)=O)ccc(OCc2nc3nccnc3c(=O)[nH]2)c1O
Second: CCc1nc2c(o1)C(=O)C=C(Nc1ccc(F)cc1)C2=O
The melting point of the first is lower: 224 to 226 °C for the first, 232 °C for the second.

Compared with CCOC(=O)C(=O)Nc1c(C)c(C)c2c(c1C)C(c1ccc(C(C)C)cc1)CO2 (stereo not drawn), CCCCc1c(C)c(NC(=O)CC(C)(C)C)c(C)c2c1OCC2c1ccc(C(C)C)cc1 (stereo not drawn) is higher in melting point: 83 to 84 °C for the first, 149 to 151 °C for the second.

Compared with CC(=O)N(O)C(C)c1ccc2c(c1)oc1ccccc12 (stereo not drawn), COc1ccc(S(=O)(=O)C(CC(=O)NO)Cc2ccccc2)cc1 (stereo not drawn) is lower in melting point: 132 to 135 °C for the first, 118 to 120 °C for the second.

Compared with COc1cc(COc2nn(-c3ccccc3)cc2/C=C/S(C)(=O)=O)ccc1OCc1nc(-c2ccco2)oc1C, CCN(CC)CCOc1ccc(N(C(=O)Nc2ccccc2)C2=NN(c3ccccc3)CC2)cc1 is lower in melting point: 152 to 153 °C for the first, 140 to 141 °C for the second.

First: Cc1nc(-c2ncn3c2[C@@H]2CCCN2C(=O)c2c(Cl)cccc2-3)no1
Second: COc1nccnc1OCC(O)CN1CCC(N2CCc3ccccc3C2=O)CC1 (stereo not drawn)
The melting point of the first is higher: 205 to 206 °C for the first, 167 to 169 °C for the second.

Compared with Cn1c(CCNC2CCN(Cc3ccccc3)CC2)cc2ccccc21, C#Cc1ccc2ccc(OC(OC)C(=O)NC(C)(C)COC)cc2c1 (stereo not drawn) is higher in melting point: 72 to 73 °C for the first, 91 to 92 °C for the second.

First: CC1COC(c2cnc(C3=NC(C)(C(C)C)C(=O)N3)c(C(=O)O)c2)O1 (stereo not drawn)
Second: CC(C)S(=O)(=O)O[C@H]1C[C@@H](C(=O)O)N(C(=O)c2ccccc2Br)C1
The melting point of the first is lower: 50 to 62 °C for the first, 139 to 140 °C for the second.

— a melting point compilation (Tetko et al.; mined from patent text by program, amines drawn as free bases though some values may be those of a salt)
